Source: ChEMBL document CHEMBL1781907, “Expeditious synthesis and biological evaluation of novel 2,N6-disubstituted 1,2-dihydro-1,3,5-triazine-4,6-diamines as potential antimalarials” (Eur J Med Chem, 2011)

Legend:
[1] = test system: Plasmodium falciparum; assay: Antimalarial activity against chloroquine and cycloguanil-resistant Plasmodium falciparum FCR-3/Gambia ring stage infected in human red blood cells assessed as inhibition of [3H]-hypoxanthine incorporation incubated 24 hrs before addition of [3H]-hypoxanthine measured after 24 hrs; format: functional, cell-based
[2] = Toxicity at human RBC assessed as haemolysis at 50 uM; format: cell-based; details: erythrocyte
[3] = test system: Plasmodium falciparum; assay: Ratio of cycloguanil IC50 to compound IC50 for chloroquine and cycloguanil-resistant Plasmodium falciparum FCR-3/Gambia; format: functional

Structure (SMILES)	IC50 [1]	Activity [2]	Ratio IC50 [3]
CC1(C)N=C(N)N=C(N)N1c1ccc(Cl)cc1 [CYCLOGUANIL]	5 µM	–	–
Cl.NC1=NC(c2ccccc2)NC(NCCCOc2c(Cl)cc(Cl)cc2Cl)=N1 (stereo unspecified)	4.32 µM	Non-toxic	–
CC1(C)N=C(N)N=C(NCc2ccccc2)N1.Cl	49.8 µM	Non-toxic	–
Cl.NC1=NC(c2ccccc2)NC(NCCCOc2ccccc2Cl)=N1 (stereo unspecified)	4.53 µM	Non-toxic	–
Cl.NC1=NC(c2ccccc2)NC(NCCCOc2ccc(Cl)cc2)=N1 (stereo unspecified)	7.11 µM	Non-toxic	–
Cl.NC1=NC(C2CCCCC2)NC(NCCCOc2ccc(Cl)cc2)=N1 (stereo unspecified)	4.59 µM	Non-toxic	–
CN(C)c1ccc(C2N=C(N)N=C(NCCCOc3ccc(Cl)cc3)N2)cc1.Cl (stereo unspecified)	44.8 µM	Non-toxic	–
Cl.NC1=NC(c2ccc(F)cc2)NC(NCCc2ccc(Cl)c(Cl)c2)=N1 (stereo unspecified)	8.41 µM	Non-toxic	–
Cl.NC1=NC(c2ccccc2)NC(NCCCCCOc2ccc(Cl)cc2)=N1 (stereo unspecified)	1.36 µM	Non-toxic	5
Cl.NC1=NC(c2ccc(C(F)(F)F)cc2)NC(NCCCOc2ccc(Cl)cc2)=N1 (stereo unspecified)	5.54 µM	Non-toxic	–
CC1(C)N=C(N)N=C(NCCc2ccc(Cl)cc2)N1.Cl	16.6 µM	Non-toxic	–
Cl.NC1=NC(c2ccc(F)cc2)NC(NCCCOc2ccc(Cl)cc2)=N1 (stereo unspecified)	6.21 µM	Non-toxic	–
CC1(C)N=C(N)N=C(NCCCOc2ccc(Cl)cc2)N1.Cl	11.3 µM	Non-toxic	–
Cl.NC1=NC(c2ccccc2Cl)NC(NCCCOc2ccc(Cl)cc2)=N1 (stereo unspecified)	6.66 µM	Non-toxic	–
Cl.NC1=NC2(CCCCC2)NC(NCc2ccccc2)=N1	9.89 µM	Non-toxic	–
Cl.NC1=NC(c2ccccc2)NC(NCCCSc2ccc(Cl)cc2)=N1 (stereo unspecified)	1.3 µM	Non-toxic	5
Cl.NC1=NC(c2ccco2)NC(NCCCOc2ccc(Cl)cc2)=N1 (stereo unspecified)	0.99 µM	Non-toxic	5
Cl.NC1=NC2(CCCCC2)NC(NCCCOc2ccc(Cl)cc2)=N1	7.94 µM	Non-toxic	–
COc1ccc(C2N=C(N)N=C(NCCCOc3ccc(Cl)cc3)N2)cc1.Cl (stereo unspecified)	6.66 µM	Non-toxic	–
Cl.NC1=NC(c2ccc([N+](=O)[O-])cc2)NC(NCCCOc2ccc(Cl)cc2)=N1 (stereo unspecified)	7.39 µM	Non-toxic	–
Cl.NC1=NC(c2ccccc2)NC(NCCCCOc2ccc(Cl)cc2)=N1 (stereo unspecified)	2.71 µM	Non-toxic	5
Cl.NC1=NC(c2ccccc2)NC(NCCCOc2ccccc2F)=N1 (stereo unspecified)	10.8 µM	Non-toxic	–
Cl.NC1=NC(c2ccccc2)NC(NCCCOc2ccc([N+](=O)[O-])cc2)=N1 (stereo unspecified)	3.87 µM	Non-toxic	–
COc1ccc(OCCCNC2=NC(N)=NC(c3ccccc3)N2)cc1.Cl (stereo unspecified)	12.3 µM	Non-toxic	–
Cl.NC1=NC(c2ccc([N+](=O)[O-])cc2)NC(NCCc2ccc(Cl)c(Cl)c2)=N1 (stereo unspecified)	11.1 µM	Non-toxic	–
Cl.NC1=NC(c2ccccc2)NC(NCCCOc2ccc(Cl)c(Cl)c2)=N1 (stereo unspecified)	6.73 µM	Non-toxic	–
Cl.NC1=NC(c2ccccc2)NC(NCCCOc2ccc(Cl)cc2Cl)=N1 (stereo unspecified)	4.52 µM	Non-toxic	–
CC1(C)N=C(N)N=C(NCCCSc2ccc(Cl)cc2)N1.Cl	7.84 µM	Non-toxic	–
CC1(C)N=C(N)N=C(NCCCCOc2ccc(Cl)cc2)N1.Cl	7.2 µM	Non-toxic	–
